Experimental data as given in paper PMC4456664, “The HAB1 PP2C is inhibited by ABA-dependent PYL10 interaction” (Scientific Reports, 2015).

Target: T1, PYL10 (Arabidopsis thaliana, UniProt Q8H1R0)
T1 sequence (Q8H1R0 1-183): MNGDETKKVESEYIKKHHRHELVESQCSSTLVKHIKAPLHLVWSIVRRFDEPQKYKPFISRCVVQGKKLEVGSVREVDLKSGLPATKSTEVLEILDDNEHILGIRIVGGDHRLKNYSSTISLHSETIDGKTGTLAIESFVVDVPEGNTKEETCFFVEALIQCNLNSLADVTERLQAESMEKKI
Assay: ITC at […] °C, pH […]; supported by 1H-15N HSQC NMR titration and HAB1 phosphatase assay
Assay type: binding

`CC1=CC(=O)CC(C)(C)[C@@]1(O)/C=C/C(C)=C\C(=O)O` [abscisic acid] showed a Kd of 66.2 ± 13.9 µM.
